According to PubChem BioAssay AID463229 (Broad Institute, 2010):
Several values for one entry are separate records, joined by “and”; a condition that tells them apart may be missing. Equal values may be shown once.

Each compound was assayed on INS-1E rat beta cells, no cytokines, CellTiter-Glo ATP, 48 h (assay: ATP level change in INS-1E without cytokines, dose response, counter-screen for beta-cell apoptosis protection project, INS-1E rat cells, ATP luminescence, cherry pick (AID 463229)).

Row | SMILES | AC50
1 | CCCCC1(Cc2ccc([N+](=O)[O-])cc2)C(=O)N(c2ccccc2)N(c2ccccc2)C1=O | 3.72 µM
2 | CCC(C)c1ccc(NC(=S)NC2CCN(Cc3ccccc3)CC2)cc1 (configuration not stated) | 10.4 µM
3 | COc1cccc(C(=O)Oc2c(Br)cc(Br)cc2/C=N/NC(=O)c2cc(C)[nH]n2)c1 | 7.17 µM
4 | COC(=O)c1ccccc1NC(=O)c1nc(S(=O)(=O)Cc2ccccc2)ncc1Cl | 7.98 µM
5 | O=C(NCCCn1ccnc1)c1ccc(-c2ccccc2)cc1 | 8.12 µM
6 | COc1cc(SC)ccc1C(=O)Nc1nc2ccccc2[nH]1 | 1.21 µM
7 | c1ccc(CNc2nc(NCc3ccccc3)c3ccccc3n2)cc1 | 11.1 µM
8 | Cc1ccc(S(=O)(=O)Nc2ccccc2N(C)S(=O)(=O)c2ccc(C)cc2)cc1 | 15.6 µM
9 | CCCOc1cc(NCc2ccccc2)c2ncn(C(C)C)c2c1 | 7.28 µM
10 | CN(C)S(=O)(=O)c1cccc(N=C2NN=C(c3ccccc3)CS2)c1 | 4.4 µM
11 | Cc1cc(Br)cc(/C=N/NC(=O)c2ccc3c(c2)OCO3)c1O | 7.43 µM
12 | C=C1[C@@H](O)[C@@H]2O[C@]3(CC[C@H](/C=C/[C@@H](C)[C@@H]4CC(C)=CC5(O[C@H](C[C@@](C)(O)C(=O)OC)CC[C@H]5O)O4)O3)CC[C@H]2O[C@@H]1[C@@H](O)C[C@H](C)[C@H]1OC2(CCCCO2)CC[C@H]1C (some centres not stated) | < 0.195 µM
13 | COc1cc(CN2CCN(c3cc(C)ccc3C)CC2)ccc1O | 7.21 µM
14 | COc1ccc(OC)c(NC(=O)c2nc(S(=O)(=O)Cc3ccccc3)ncc2Cl)c1 | 7.87 µM
15 | COc1cccc(F)c1C(C[N+](=O)[O-])c1c(N)n(C)c(=O)n(C)c1=O (configuration not stated) | 8.3 µM
16 | CCN1/C(=C/C=C/c2sc3ccccc3[n+]2CC)Sc2ccccc21 | < 0.195 µM
17 | CCCOc1ccc(/C=N/NC(=S)Nc2ccccc2[N+](=O)[O-])c(O)c1 | 7.44 µM
18 | C/C(=N/NC(=O)c1ccc(C(C)(C)C)cc1)c1ccccn1 | 2.1 µM
19 | Cc1ccc(C(=O)Nc2cccc3[nH]c(C(F)(F)F)nc23)cc1 | 13.3 µM
20 | CCCCNc1c(-c2ccc(SC3CCCCC3)cc2)nc2ccccn12 | 5.31 µM
21 | CCn1c(=NC(=O)CCS(=O)(=O)c2ccccc2)sc2cccc(OC)c21 | 7.2 µM
22 | CC(C)c1ccccc1-n1c(SCC(=O)N2CCc3ccccc3C2)nc2ccccc2c1=O | 2.42 µM

Row | SMILES | AC50
23 | Cc1ccc(C(C)C)c(OCc2ccc(C(=O)N/N=C/c3ccc(O)cc3O)cc2)c1 | 3.99 µM
24 | Cc1ccc(C(=O)Nc2nc(-c3ccccn3)cs2)s1 | 6.66 µM
25 | COc1cccc(/C=N/Nc2ccnc(=O)[nH]2)c1O | 22.7 µM
26 | CC(=O)Oc1c(C)cc(Cl)cc1C(=O)Nc1ccc([N+](=O)[O-])cc1Cl | 1.43 µM
27 | O=C(NNc1ccccc1Br)C(O)(c1cccc(C(F)(F)F)c1)c1cccc(C(F)(F)F)c1 | 7.06 µM
28 | CC(=O)C1=NN(c2ccccc2)C(c2cccs2)N1c1ccc(N(C)C)cc1 (configuration not stated) | 3.56 µM
29 | CCCNC(=O)c1ccc2c(=O)c(O)c(-c3ccc(C)cc3)[nH]c2c1 | 8.71 µM
30 | CCC(C)(C)c1ccc(OCCCC[n+]2cccc(C)c2C)c(C(C)(C)CC)c1 | 0.804 µM
31 | CC(C)Cn1c(N)c(C(=O)CSc2ccc3c(c2)OCCO3)c(=O)n(C)c1=O | 4.85 µM
32 | COc1ccccc1C(=O)Nc1nc(-c2ccc(S(=O)(=O)N3CCOCC3)cc2)cs1 | 5.29 µM
33 | CCN(CC)S(=O)(=O)c1ccc(NC(=O)Nc2cccc(C(F)(F)F)c2)cc1 | 8.02 µM
34 | O=c1cc(N2CCN(c3cccc(Cl)c3)CC2)[nH]c(=O)n1C1CCCCC1 | 1.66 µM
35 | Cc1ccc(C(=O)N/C(=C\c2ccc(-c3ccc(Cl)cc3)o2)C(=O)NCCCN(C)C)cc1 | 10.9 µM
36 | C=CCNC(=S)N/N=C(\C)c1ccccn1 | 1.22 µM
37 | O=S(=O)(NCC1CCCO1)c1ccc(-c2ccc(S(=O)(=O)NCC3CCCO3)cc2)cc1 (configuration not stated) | 4.95 µM
38 | O=C(CCSc1nc2ccccc2s1)N/N=C/c1c(O)ccc2ccccc12 | 5.5 µM
39 | CCN(CC)c1ccc(/C=N/Nc2nc(C)cc(C)n2)c(O)c1 | 15.8 µM
40 | CCOc1ccc(-n2c(O)c(/C=N/Nc3nc(C)cc(C)n3)c3ccccc3c2=O)cc1 | 6.38 µM
41 | Cn1cccc1C1C=C(c2ccc(C(C)(C)C)cc2)Nc2ncnn21 (configuration not stated) | 3.2 µM
42 | COC(=O)C1CN(C#N)N(c2ccc(Cl)cc2)C12c1ccccc1-c1ccccc12 (configuration not stated) | 4.26 µM
43 | COc1cc(/C=N/NC(=O)c2cccnc2)ccc1OC(=O)c1cc(OC)c(OC)c(OC)c1 | 2.51 µM
44 | Cc1sc2ncnc(N3CCN(S(=O)(=O)c4ccccc4)CC3)c2c1C | 5.98 µM

Row | SMILES | AC50
45 | CCOC(=O)c1c(CSc2nc(C)cc(C)c2C#N)n(C)c2cc(Br)c(OC(C)=O)cc12 | 3.73 µM
46 | COc1ccc(OC)c2c1C(=O)C(Cl)=C(Cl)C2=O | 8.18 µM
47 | CC(C)(C)C1CCC2(CC1)C(C#N)=C(SCC(=O)NC1CCCCC1)NC(=O)C2C#N (configuration not stated) | 15.9 µM
48 | Cn1ncc2c(O/N=C(\N)c3ccc(C(C)(C)C)cc3)ncnc21 | 6.59 µM
49 | COc1cccc(/C=N/NC(=O)c2ccoc2C)c1O | 11 µM
50 | O=C(N/N=C/c1cc([N+](=O)[O-])ccc1O)c1cc(-c2ccccc2)nc2ccccc12 | 5.78 µM
51 | Cc1ncc(CO)c(/C=N/NC(=O)c2cc3c(s2)CCCC3)c1O | 5.92 µM
52 | N#CC(c1cccc(Cl)c1)c1ccc2c(C(F)(F)F)cc(C(F)(F)F)nc2n1 (configuration not stated) | 0.868 µM
53 | Cc1ccc(N=Nc2ccc(O)c3ncccc23)cc1 | 6.58 µM
54 | N#CC(C#N)=C(Nc1ccc(F)cc1)SCc1cccc(Br)c1 | 3.02 µM
55 | COc1cc(NC(=O)COc2cc(O)c3c(c2)OC(C)(C)CC3=O)cc(OC)c1OC | 6.45 µM
56 | Nc1ccc2c(c1)C(=O)C(=O)c1ccccc1-2 | 1.2 µM
57 | COc1ccc(C(=O)c2c(C(F)(F)F)oc3c2C(=O)c2ccccc2C3=O)cc1 | 6.74 µM
58 | CC1CCN(Cc2c(C(=O)N/N=C/c3cc(Cl)ccc3O)nnn2-c2nonc2N)CC1 | 2.08 µM
59 | Nc1nc(-c2ccccn2)nc(N)c1Cc1ccc(Cl)cc1Cl | 11.9 µM
60 | FC(F)(F)c1nc2ccccc2n2c(-c3ccc(Cl)cc3)nnc12 | 7.14 µM
61 | COC(=O)c1cc(C)nc2c1C(=O)C(=O)C=C2N1CCOCC1 | 4.66 µM
62 | O=C(N/N=C/c1ccc(O)cc1O)c1ccc(CN2C(=O)c3cccc4cccc2c34)cc1 | 3.89 µM
63 | Cc1cc(C)c2nc(NNC(=O)c3ccc(S(=O)(=O)N4CCCC(C)C4)cc3)sc2c1 (configuration not stated) | 4.52 µM
64 | Cc1cccc2sc(NNC(=O)c3ccc(S(=O)(=O)N4CCCC(C)C4)cc3)nc12 (configuration not stated) | 6.74 µM
65 | [O-][N+]1=c2ccc(Nc3ccccc3)cc2=NC12CCCCC2 | 12.5 µM
66 | Cc1cc([N+](=O)[O-])c2ccccc2[n+]1[O-] | 0.454 µM

Row | SMILES | AC50
67 | Cc1nn(Cc2c(Cl)cccc2Cl)c(C)c1NC(=O)c1cn(-c2ccccc2)nc1-c1ccccc1 | 4.24 µM
68 | Cc1csc2ncnc(NCCc3ccccn3)c12 | 6.88 µM
69 | CC(C)c1cccc(C(C)C)c1OC(=O)[C@H]1OC(C(C)(C)C)=C[C@@H]1c1ccccc1 | 7.8 µM
70 | Cc1ccc(-c2cn(-c3ccccc3)c3[n+]2CCCS3)cc1 | 1.97 µM and 2.98 µM
71 | CCOc1ccc2nc(NC(=O)c3ccccn3)sc2c1 | 6.67 µM
72 | C/C(=N\NC(=O)c1cc(-c2cccs2)nc2ccccc12)c1ccccn1 | 1.92 µM
73 | CCOC(=O)c1cnc(-n2nc(C)cc2C)nc1NC(C)c1ccccc1 (configuration not stated) | 13.7 µM
74 | c1ccc2c(NCCCN3CCOCC3)c3ccccc3nc2c1 | 6.37 µM
75 | O=S1(=O)C=C(Sc2nnc(-c3ccccc3)o2)c2ccccc21 | 7.96 µM
76 | N#CC(C#N)=C1C=CC=CN1/C(=C\c1ccco1)C(=O)c1ccc(Br)cc1 | 8.57 µM
77 | COc1cccc(/C=N/Nc2cc(C)nc(-c3ccccc3O)n2)c1O | 15.1 µM
78 | Cc1ccc(S(=O)(=O)N2CCOCC2)cc1C(=O)Nc1nc(-c2ccccn2)cs1 | 7.77 µM
79 | COc1ccc(C)cc1NS(=O)(=O)c1ccc(NC(=O)CN(c2cc([N+](=O)[O-])ccc2C)S(C)(=O)=O)cc1 | 1.11 µM
80 | COc1ccccc1CNc1ncnc2sccc12 | 11.9 µM
81 | O=[N+]([O-])c1ccccc1-c1cc(-c2ccccc2)cc(-c2ccccc2)[n+]1Cc1ccccc1Cl | 2.23 µM
82 | O=C(N/N=C/c1sc(N2CCOCC2)nc1-c1ccccc1)c1cccc(S(=O)(=O)N2CCCC2)c1 | 2.25 µM
83 | Cn1nnnc1Sc1ncnc2scc(-c3cc4ccccc4o3)c12 | 7.61 µM
84 | C[n+]1c2n(c3ccccc31)N=C(c1ccc(-c3ccccc3)cc1)CS2 | 1.74 µM
85 | Oc1c(CN2CCN(c3ccccn3)CC2)cc(Cl)c2cccnc12 | 5.4 µM
86 | Cc1oc2c(c1C(=O)c1ccccc1)C(=O)C(=O)c1ccccc1-2 | 3.52 µM
87 | Cc1ccc(-c2cc(-c3ccc(C)cc3)[n+](-c3ccccc3)c(-c3ccc(C)cc3)c2)cc1 | 0.577 µM
88 | Cn1ncc2c(N3CCN(c4ccc(Cl)c(Cl)c4)CC3)ncnc21 | 3.37 µM

Row | SMILES | AC50
89 | CCCC(=O)NC(c1ccc(Cl)cc1)c1ccc2cccnc2c1O (configuration not stated) | 2.08 µM
90 | Oc1cccc(/C=N/NC(=S)Nc2cccnc2)c1O | 8.6 µM
91 | CC(C)(C)c1ccc(-n2ncc3c2CCCC3NC(=O)C2(C(N)=O)CC2)cc1 (configuration not stated) | 6.85 µM
92 | COC1=C(Nc2ccccc2)C(=O)c2ccccc2C1=O | 17.4 µM
93 | Cc1ccccc1Oc1cc(NC(=O)CCCn2nc(C)c([N+](=O)[O-])c2C)cc([N+](=O)[O-])c1 | 6.44 µM
94 | NC1=C(Br)C(=O)c2ccccc2C1=O | 18.2 µM
95 | O=C(N/N=C\c1ccc([N+](=O)[O-])s1)c1cncc(Br)c1 | 6.53 µM
96 | Oc1c(Cl)cc(Cl)cc1/C=N/Nc1ncc(Br)cn1 | 3.94 µM
97 | CCOc1ccc(/C=N/NC(=O)c2[nH]ncc2Br)c(O)c1 | 3.66 µM
98 | Cc1cc(/C=N/n2cnnc2)c(C)n1-c1ccc(OCc2ccc(Cl)cc2)cc1 | 1.26 µM
99 | Cc1ccc(N(CC(=O)Nc2cc(C)cc(C)c2)S(=O)(=O)c2c(C)noc2C)cc1 | 14.5 µM
100 | C/C(=N/Nc1nc(-c2ccccc2)cc(-c2ccc(F)cc2)n1)c1cccc(N)c1 | 15.1 µM
101 | N#CC1=C(N)N2C(=C(C#N)C1c1ccc(Br)cc1)Nc1ccccc12 (configuration not stated) | 1.87 µM
102 | CCCCCCOC(=O)C[N+](C)(C)CCOC1CC2CCC1(C)C2(C)C (configuration not stated) | 4.48 µM
103 | CCOc1cc(C)c(S(=O)(=O)Nc2ccc3cn[nH]c3c2)cc1C | 9.86 µM
104 | N#Cc1ccc(-c2ccc(Cl)cc2)nc1SCC(=O)c1cccc(Cl)c1 | 6 µM
105 | COc1ccc(C(=O)/C(C#N)=N/Nc2ccc([N+](=O)[O-])cc2)cc1 | 2.15 µM
106 | O=C(Nc1ccccc1Cl)/C(Cl)=C(\Cl)S(=O)c1ccccc1 (configuration not stated) | 2.9 µM
107 | COc1ccc(NS(=O)(=O)c2ccc(N3CCOCC3)c(N)c2)cc1 | 7.12 µM
